Experimental data published in patent US12570988B2, “Aptamers that bind thiamine analogs and derivatives” (MeiraGTx Gene Regulation Limited, priority 2020, dated 2026).

Assays:
[1] = system: riboswitch TPPm (E. coli thiM TPP aptamer); experiment: Luciferase reporter with TPPm riboswitch in HEK 293 cells; type: cell-based, human; details: FIG. 1
Description: (§1) Riboswitch constructs: Aptamers were synthesized by Integrated DNA Technologies, Inc. and Golden Gate cloning strategy (New England Biolabs, NEB) was used to clone the synthesized aptamer sequences into intron-exon-intron cassette to replace the guanine aptamer in the G17 riboswitch cassette (see SEQ ID NO: 15 recited in WO 2016/126747, which is incorporated herein in its entirety) with a TPP aptamer from the Alishewanella tabrizica thiC gene (Microbiol Res. 2017 January; 195:71-80) or a TPP aptamer from the Escherichia coli thiM gene (Structure. 2006 September; 14(9):1459-68), generating riboswitch TPPz and TPPm, respectively.
(§2) Transfection: 3.5×10^4 human embryonic kidney (HEK) 293 cells were plated in a 96-well flat bottom plate the day before transfection. Plasmid DNA (500 ng) was added to a tube or a 96-well U-bottom plate. Separately, TransIT-293 reagent (Mirus; 1.4 μL) was added to 50 μL Optimem I media (Life Technologies) and allowed to sit for 5 minutes at room temperature (RT). Then, 50 μL of this diluted transfection reagent was added to the DNA, mixed, and incubated at RT for 20 min. Finally, 7 μL of this solution was added to a well of cells in the 96-well plate. Four hours after transfection, medium containing transfection solution was replaced by medium containing either TPP, fursultiamine, prosultiamine, bisbentiamine, beclotiamine hydrochloride, or sulbutiamine as aptamer inducers.
(§3) Firefly luciferase assay of cultured cells: Twenty-four hours after media change, plates were removed from the incubator, and equilibrated to RT for several minutes on a lab bench, then aspirated. Glo-lysis buffer (Promega, 100 μL, RT) was added, and the plates allowed to remain at RT for at least 5 minutes. Then, the well contents were mixed by 50 μL trituration, and 20 μL of each sample was mixed with 20 μL of bright-glo reagent (Promega) that had been diluted to 10% in glo-lysis buffer. 96 wells were spaced on an opaque white 384-well plate. Following a 5 min incubation at RT, luminescence was measured using a Tecan machine with 500 ms read time. The luciferase activity was expressed as mean arbitrary light units (ALU)±S.D., and fold induction was calculated as the quotient of the luciferase activity obtained from cells with TPP or analog treatment divided by the luciferase activity obtained from cells without TPP or analog treatment.

[2] = system: riboswitch TPPz (A. tabrizica thiC TPP aptamer); experiment: Luciferase reporter with TPPz riboswitch in HEK 293 cells; type: cell-based, human; details: FIG. 1
Description: as §1, §2, §3

riboswitch 15D10 [3] = experiment: Luci-15D10 luciferase reporter in ARPE-19 cells; type: cell-based, human; details: FIG. 9E
riboswitch 15D10 [4] = experiment: Luciferase reporter with 15D10 riboswitch (Luci-15D10) in AML12 cells; type: cell-based, mouse; details: for relative potency in inducing luciferase expression: AML 12 cells, compared with fursultiamine or within groups; for fold induction at 50 µM: Mus musculus, AML12, 24 h, read-out: Fold increase in riboswitch 15D10-regulated luciferase expression, AML
riboswitch 15D10 [5] = experiment: Luciferase reporter with 15D10 riboswitch (Luci-15D10) in HEK 293 cells; type: cell-based, human; details: HEK 293 cells; for effect on luciferase expression from Luci-15D10: FIG. 9A, 9C; for fold induction at 50 µM: Homo sapiens, HEK293, 24 h, read-out: Fold increase in riboswitch 15D10-regulated luciferase expression, HEK
Outline: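 Cells transfected with riboswitch-luciferase plasmid; 4 h later medium replaced with TPP or thiamine analogs (fursultiamine, prosultiamine, bisbentiamine, beclotiamine, sulbutiamine) as inducers.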

[6] = system: riboswitch comprising aptamer 15A5; experiment: Luciferase reporter with 15A5 riboswitch in AML12 cells; type: cell-based, mouse; details: FIG. 6B
[7] = system: luciferase expression in HEK 293 cells; experiment: Screen of aptamer libraries A1-A3 for gene regulation activity with fursultiamine; type: cell-based, human; details: 50 μM fursultiamine, FIG. 4A
Protocol: Three aptamer libraries A1, A2 and A3, were generated by randomizing nucleotides at 6 positions in, or adjacent to, regions J4-5, J2-4 and J3-2, respectively (see FIG. 3). Single bacterial colonies were picked and plasmids containing riboswitch constructs were screened in HEK 293 cells for improved gene regulation activity in response to 50 μM fursultiamine as compared to riboswitch 14G4. […] These riboswitches comprising re-engineered aptamer sequences also lead to significant enhancements of target gene expression in other cells types, including alpha mouse liver 12 (AML12), C2C12 (murine myoblast cell line), and adult retinal pigment epithelial cell line-19 (ARPE-19) (see FIG. 4B).

CC(=C(CCOC(=O)C(C)C)SSC(CCOC(=O)C(C)C)=C(C)N(C=O)Cc1cnc(C)nc1N)N(C=O)Cc1cnc(C)nc1N (stereo in doubt) [sulbutiamine] was tested, and the “effect on luciferase expression, riboswitch TPPm” value (shortened to “effect … riboswitch TPPm”) [1] was “weak or no effects on luciferase expression” and the “effect on luciferase expression, riboswitch TPPz” value (“effect … riboswitch TPPz” for short) [2] was “weak or no effects on luciferase expression”.

In the case of C/C(=C(\CCO)SCOC(=O)C(C)(C)C)N(C=O)Cc1cnc(C)nc1N [Compound M10, (Z)-((2-(N-((4-Amino-2-methylpyrimidin-5-yl)methyl)formamido)-5-hydroxypent-2-en-3-yl)thio)methyl pivalate], the “activity in increasing riboswitch 15D10-regulated luciferase expression” value (riboswitch 15D10 [3]) is reported as “equivalent potency to fursultaimine”, the “relative potency in inducing luciferase expression” value (“relative potency” below) (riboswitch 15D10 [4]) is reported as “more potent than fursultiamine” and the “effect on luciferase expression from Luci-15D10” value (“effect … from Luci-15D10” for short) (riboswitch 15D10 [5]) is reported as “increased”.

C/C(=C(\CCO)SCOC(=O)C12CC3CC(CC(C3)C1)C2)N(C=O)Cc1cnc(C)nc1N [Compound M19, (((Z)-2-(N-((4-Amino-2-methylpyrimidin-5-yl)methyl)formamido)-5-hydroxypent-2-en-3-yl)thio)methyl (3r,5r,7r)-adamantane-1-carboxylate] was tested, and the “activity in increasing riboswitch 15D10-regulated luciferase expression” value (riboswitch 15D10 [3]) was “equivalent potency to fursultaimine”, the “relative potency” value (riboswitch 15D10 [4]) was “more potent than fursultiamine” and the fold induction at 50 µM (riboswitch 15D10 [4]; AML12 cells, Table 2) was 330. The “fold increase in luciferase expression” value (riboswitch 15D10 [5]; 12.5 μM) was 168.7 fold, the “effect … from Luci-15D10” value (riboswitch 15D10 [5]) was “increased” and the “relative potency” value (riboswitch 15D10 [5]; compared with fursultiamine or within Formula V/VI groups) was “more potent”. For the same molecule, the fold induction at 50 µM (riboswitch 15D10 [5]; Table 2) was 676.

In the case of C/C(=C(\CCO)SCOC(=O)c1ccccc1)N(C=O)Cc1cnc(C)nc1N [Compound M21, (Z)-((2-(N-((4-Amino-2-methylpyrimidin-5-yl)methyl)formamido)-5-hydroxypent-2-en-3-yl)thio)methyl benzoate], the “activity in increasing riboswitch 15D10-regulated luciferase expression” value (riboswitch 15D10 [3]) is reported as “equivalent potency to fursultaimine”, the “relative potency” value (riboswitch 15D10 [4]) is reported as “more potent than fursultiamine” and the fold induction at 50 µM (riboswitch 15D10 [4]; AML12 cells, Table 2) is reported as 229. The “effect … from Luci-15D10” value (riboswitch 15D10 [5]) was “increased” and the fold induction at 50 µM (riboswitch 15D10 [5]; Table 2) was 618.

C/C(=C(\CCO)SC(=O)c1cc(Cl)ccc1Oc1ccccc1Cl)N(C=O)Cc1cnc(C)nc1N [Compound M158, (Z)—S-(2-(N-((4-amino-2-methylpyrimidin-5-yl)methyl)formamido)-5-hydroxypent-2-en-3-yl) 5-chloro-2-(2-chlorophenoxy)benzothioate] was tested, and the fold induction at 50 µM (riboswitch 15D10 [4]; AML12 cells, Table 3) was 235 and the fold induction at 50 µM (riboswitch 15D10 [5]; Table 3) was 96.9.

For C/C(=C(\CCO)SC(=O)c1cc(Cl)ccc1Oc1ccccc1Br)N(C=O)Cc1cnc(C)nc1N [Compound M159, (Z)—S-(2-(N-((4-amino-2-methylpyrimidin-5-yl)methyl)formamido)-5-hydroxypent-2-en-3-yl) 2-(2-bromophenoxy)-5-chlorobenzothioate], the fold induction at 50 µM (riboswitch 15D10 [4]; AML12 cells, Table 3) was 206 and the fold induction at 50 µM (riboswitch 15D10 [5]; Table 3) was 85.5.

For C/C(=C(\CCO)SC(=O)c1c(F)cccc1Oc1ccccc1Br)N(C=O)Cc1cnc(C)nc1N [Compound M160, (Z)—S-(2-(N-((4-amino-2-methylpyrimidin-5-yl)methyl)formamido)-5-hydroxypent-2-en-3-yl) 2-(2-bromophenoxy)-6-fluorobenzothioate], the fold induction at 50 µM (riboswitch 15D10 [4]; AML12 cells, Table 3) was 131 and the fold induction at 50 µM (riboswitch 15D10 [5]; Table 3) was 79.5.

Cc1ncc(C[n+]2csc(CCO[P@](=O)(O)OP(=O)(O)O)c2C)c(N)n1 [TPP, thiamine pyrophosphate] was tested, and the “effect … riboswitch TPPm” value [1] was “regulate luciferase expression”, the “luciferase regulation in response to ligand, riboswitch 15A5” value [6] was “respond very poorly” and the “luciferase regulation in response to ligand, riboswitch 15D10” value (riboswitch 15D10 [4]; AML12 cells, FIG. 6B) was “respond very poorly”. The “effect … riboswitch TPPz” value [2] was “regulate luciferase expression”.

For Cc1ncc(C[n+]2csc(CCCl)c2C)c(N)n1.Cl.[Cl-] [beclotiamine hydrochloride], the “effect … riboswitch TPPm” value [1] was “weak or no effects on luciferase expression” and the “effect … riboswitch TPPz” value [2] was “weak or no effects on luciferase expression”.

For C/C(=C(\CCOC(=O)c1ccccc1)SS/C(CCOC(=O)c1ccccc1)=C(/C)N(C=O)Cc1cnc(C)nc1N)N(C=O)Cc1cnc(C)nc1N [bisbentiamine], the “effect … riboswitch TPPm” value [1] was “weak or no effects on luciferase expression” and the “effect … riboswitch TPPz” value [2] was “weak or no effects on luciferase expression”.

B1: 1D10: re-engineered aptamer, encoding sequence SEQ ID NO:8 (nucleic acid)
DNA: ACAGGGGTCCGGCCTTTTCATTTGGCGCCGGTGAGATTATACCCTTTGAACCTGTTTACGGATAATGCCGCCGCAGGGAGT
modifications: expressed or natural sequence
For B1, the “fursultiamine-dependent induction compared to parent construct 14G4” value [7] was “increase in fursultiamine-dependent induction”.

B2: 6C4: re-engineered aptamer, encoding sequence SEQ ID NO:16 (nucleic acid)
DNA: ACGGGGGTCCGGCCTTTTCATTTGGCGCCGGTGAGAGCACACCCTTCGAACCTGTTTACGGATAATGCCGCCGCAGGGAGT
modifications: expressed or natural sequence
B2 was tested, and the “fursultiamine-dependent induction compared to parent construct 14G4” value [7] was “increase in fursultiamine-dependent induction”.

B3: 4H2: re-engineered aptamer, encoding sequence SEQ ID NO:15 (nucleic acid)
DNA: ACAGGGGTCCGGCCTTTTCATTTGGCGCCGGTGAGAGCACACCCTTCGGACCTGTTTACGGATAATGCCGCCGCAGGGAGT
modifications: expressed or natural sequence
For B3, the “fursultiamine-dependent induction compared to parent construct 14G4” value [7] was “increase in fursultiamine-dependent induction”.

B4: 6B4: re-engineered aptamer, encoding sequence SEQ ID NO:14 (nucleic acid)
DNA: ACAGGGGTCCGGCCTTTTCATTTGGCGCCGGTGAGAGCACACCCTTGTGACCTGTTTACGGATAATGCCGCCGCAGGGAGT
modifications: expressed or natural sequence
B4 was tested, and the “fursultiamine-dependent induction compared to parent construct 14G4” value [7] was “increase in fursultiamine-dependent induction”.

B5: 3H4: re-engineered aptamer, encoding sequence SEQ ID NO:9 (nucleic acid)
DNA: ACAGGGGTCCGGCCTTTTCATTTGGCGCCGGTGAGAGCACACCCTTTGAACCTGTTCACGGATAATGCCGCTGCAGGGAGT
modifications: expressed or natural sequence
In the case of B5, the “fursultiamine-dependent induction compared to parent construct 14G4” value [7] is reported as “increase in fursultiamine-dependent induction”.

B6: 6G12: re-engineered aptamer, encoding sequence SEQ ID NO:17 (nucleic acid)
DNA: ACAGGGGTCCGGCCTTTTCATTTGGCGCCGGTGAGAGCACACCCTTTGGACCTGTTTACGGATAATGCCGCCGCAGGGAGT
modifications: expressed or natural sequence
B6 was tested, and the “fursultiamine-dependent induction compared to parent construct 14G4” value [7] was “increase in fursultiamine-dependent induction”.
